Common to all, as to assay type: cell-based, human
In one test the test system is MDAH-2774. Briefly: XTT cell proliferation assay (cytotoxicity). Here is the method:
(§1) Cells were seeded at 7×10^3 per well in 96-well culture plates before treatment with different concentrations of protoapigenone for 12, 24 and/or 48 hours. Next, the cytotoxicity of protoapigenone was determined using XTT cell proliferation assay (Sigma, St. Louis, Mo.). The absorbance of wavelength at 490 nm (OD490) and 650 nm (OD650) were determined respectively by enzyme-linked immunosorbent assay (ELISA) reader, and 50% of inhibitory concentration (IC50) was calculated by the value of OD490-OD650. In addition, in order to evaluate the long-term effect, the cells were treated with different concentration of protoapigenone for 3 hours, then were incubated with fresh medium for 14 days so as to form colonies. Finally, the cells were stained with crystal violet and were observed under the microscope.

In the next test the test system is p38 MAPK. Briefly: Immunoblotting, phosphorylation in LNCap cells. The note with it: LNCap pretreated 1 hour with inhibitor, then protoapigenone 1 hour. An excerpt: The concentration of protein supernatant was further determined using the Bio-Rad protein assay kit (Bio-Rad Laboratories, Hercules, Calif.). Whole cell lysates were separated on polyacrylamide sodium dodecyl sulfate (SDS) gels and the proteins were transferred onto the nitrocellulose membrane. Proteins were detected sequentially by the specific primary antibodies, followed by peroxidase-conjugated secondary antibodies, and visualized by the Enhanced chemiluminescence detection system (Amersham, N.J.).
(Immunoblotting shows a protein as a band on a membrane.)

The next test relates to LNCap. Briefly: XTT cell proliferation assay (growth inhibition). The note with it: inhibitor pretreatment, then protoapigenone for 12 hours. Here is the method:
as §1
A general note: Tetrazolium assays rely on reduction of a dye to a coloured formazan, in cell work by metabolically active cells.

The subject of test [1] is LNCap cells. Briefly: Protoapigenone-induced apoptosis with kinase inhibitor pretreatment. As to the method:
Human prostate cancer cell line LNCap used in the present invention was purchased from ATCC, Manassas, Va. and was cultured in RPMI 1640 medium supplemented with 10% FBS and penicillin/streptomycin/amphotericin B. LNCap cells were treated with 2.5, 5 and 10 μM protoapigenone respectively and were analyzed. In some experiments, LNCap cells were treated with p38 mitogen-activated protein kinase (MAPK) inhibitor SB203580 or c-Jun NH2-terminal kinase (JNK) ½ inhibitor SP600125 for one hour before protoapigenone treatment.

Test [2] has as its system LNCap cells. Briefly: Cell cycle analysis (PI flow cytometry). The note with it: inhibitor pretreatment. As to the method:
The ovarian cancer cells and the prostate cancer cells respectively were treated with protoapigenone at different concentrations (0, 2.5, 5 and 10 μM) for 24 hours and 6 hours (or 12 hours). These cells were harvested by trypsin and fixed with 70% ethanol for 1 hour, washed with phosphate buffered saline (PBS) twice, and resuspended in propidium iodide (PI)/RNase A solution for 30 minutes. In accordance with the mechanism of DNA stained with propidium iodide, the cell cycle and sub-G1 distribution were detected by the FACScan flow cytometry (Becton Dickinson, San Jose, Calif.), and data analysis was done with CellQuest software (BD Bioscience).
Background: A flow cytometer gives signals particle by particle.

This note sets out measurements from US20100062078A1, “PHARMACEUTICAL COMPOSITION FOR TREATING CANCER AND THE SIGNALING PATHWAY THEREOF” (priority 2008, published 2010).

Molecules are shown by their SMILES.

`N.N.[Cl][Pt][Cl]` [cisplatin, cis-diamminedichloridoplatinum (II), reference compound]: the “inhibition of cell growth” value in the test with MDAH-2774 (MDAH-2774, 5 μM cisplatin) is 28.48%; in the test with MDAH-2774 (MDAH-2774, 10 μM cisplatin), 36.91%.
As to `C[S+]([O-])c1ccc(-c2nc(-c3ccncc3)c(-c3ccc(F)cc3)[nH]2)cc1` (stereo not drawn) [SB203580, reference compound], the “protoapigenone-induced phosphorylation (activation) of p38 MAPK in presence of inhibitor” value in the test with p38 MAPK is listed as “blocked”. Moreover, in the test on LNCap, the “survival rate of LNCap cells vs cells only treated with protoapigenone” value is given as “higher”. Also, the “protoapigenone-induced apoptotic percentage in presence of inhibitor” value in the test with LNCap cells [1] is given as “decreased”. In the test with LNCap cells [2], the “effect of inhibitor on protoapigenone-induced S and G2/M phases arrest” value is on record as “significantly attenuates”.
